According to ChEMBL document CHEMBL1201862, “PubChem BioAssay data set” (2004):
Activity calls are given as the source filed them.

Columns and labels:
[1] = target: Voltage-gated inwardly rectifying potassium channel KCNH2 (Homo sapiens, UniProt Q12809); test: hERG protection from proarrhythmic block, potency, dose response, cell-based, thallium flux (AID 2121); format: ADME
[2] = target: 26S proteasome non-ATPase regulatory subunit 14 (Homo sapiens, UniProt O00487); test: inhibition of proteasome subunit RPN11 – biochemical, fluorescence polarization, uHTS hits, confirmation (AID 602368); format: functional
[3] = target: 72 kDa type IV collagenase (Homo sapiens, UniProt P08253); test: Dose Response validation of uHTS RPN11 inhibitor hits using a MMP-2 Fluorescence assay.; format: functional
[4] = target: Prothrombin (Bos taurus, UniProt P00735); test: thrombin inhibition, dose response, biochemical, fluorescence polarization, uHTS hits (AID 602369); format: functional
[5] = Luminescence-based cell-based high throughput dose response assay to identify activators of the DAF-12 from the parasite S. stercoralis (ssDAF-12).; format: functional
[6] = target: T1, Oxysterols receptor LXR-beta (Homo sapiens, UniProt P55055); test: LXR agonists, Gal4 luciferase reporter, dose response, counter-screen for ssDAF-12 agonist project, cell-based, luminescence, HEK293, S. stercoralis campaign (AID 720737); format: functional; details: read-out: IC50 (the source's name)
T1 sequence (P55055 whole entry): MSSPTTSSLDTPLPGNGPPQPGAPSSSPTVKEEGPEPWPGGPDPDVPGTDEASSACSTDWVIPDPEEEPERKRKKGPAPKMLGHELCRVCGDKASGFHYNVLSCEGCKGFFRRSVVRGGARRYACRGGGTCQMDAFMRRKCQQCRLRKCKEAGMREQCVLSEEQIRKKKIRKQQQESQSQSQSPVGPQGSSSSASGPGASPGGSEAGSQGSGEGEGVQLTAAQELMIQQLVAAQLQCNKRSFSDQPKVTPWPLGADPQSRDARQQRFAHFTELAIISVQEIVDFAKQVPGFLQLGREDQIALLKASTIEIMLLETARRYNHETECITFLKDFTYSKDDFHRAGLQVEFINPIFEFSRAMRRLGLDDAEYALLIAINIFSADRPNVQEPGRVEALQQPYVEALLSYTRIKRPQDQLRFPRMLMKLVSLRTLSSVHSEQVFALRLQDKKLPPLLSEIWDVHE

[7] = microbe, parasite or virus in culture; format: functional; details: Mycobacterium tuberculosis
[8] = target: Melanocortin receptor 4 (Homo sapiens, UniProt P32245); test: MC4R antagonist potency on cAMP, dose response, cell-based, TR-FRET, biased antagonists (AID 602298); format: functional;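 also: antagonist potency against agonist-stimulated cAMP production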
[9] = nonselective inhibitors of cellular cAMP signaling, dose response, counter-screen for MC4R biased antagonist project, cell-based, TR-FRET cAMP detection (AID 602305); format: functional;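 also: U2OS cells stimulated with forskolin near its EC80 as the cAMP inducer; potency is for inhibition of forskolin-stimulated cAMP signaling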

Chain of 26S proteasome non-ATPase regulatory subunit 14 (O00487 whole entry): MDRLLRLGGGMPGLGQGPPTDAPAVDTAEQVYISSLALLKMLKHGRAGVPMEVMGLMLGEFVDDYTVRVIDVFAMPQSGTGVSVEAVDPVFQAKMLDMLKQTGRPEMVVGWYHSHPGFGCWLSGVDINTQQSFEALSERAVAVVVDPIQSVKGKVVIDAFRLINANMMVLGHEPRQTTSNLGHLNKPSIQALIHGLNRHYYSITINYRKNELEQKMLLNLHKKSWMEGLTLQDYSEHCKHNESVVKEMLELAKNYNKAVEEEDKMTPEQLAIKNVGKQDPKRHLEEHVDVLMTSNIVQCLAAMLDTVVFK
Chain of Melanocortin receptor 4 (P32245 whole entry): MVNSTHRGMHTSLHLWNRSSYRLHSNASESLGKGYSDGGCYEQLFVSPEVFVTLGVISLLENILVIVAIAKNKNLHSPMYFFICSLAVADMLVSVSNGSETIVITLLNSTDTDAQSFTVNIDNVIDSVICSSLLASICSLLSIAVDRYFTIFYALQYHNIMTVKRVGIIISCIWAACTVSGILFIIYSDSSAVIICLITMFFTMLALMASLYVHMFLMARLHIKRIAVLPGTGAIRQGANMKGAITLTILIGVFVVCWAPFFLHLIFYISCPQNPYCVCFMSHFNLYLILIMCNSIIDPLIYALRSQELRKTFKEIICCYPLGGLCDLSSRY
Chain of 72 kDa type IV collagenase (P08253 whole entry): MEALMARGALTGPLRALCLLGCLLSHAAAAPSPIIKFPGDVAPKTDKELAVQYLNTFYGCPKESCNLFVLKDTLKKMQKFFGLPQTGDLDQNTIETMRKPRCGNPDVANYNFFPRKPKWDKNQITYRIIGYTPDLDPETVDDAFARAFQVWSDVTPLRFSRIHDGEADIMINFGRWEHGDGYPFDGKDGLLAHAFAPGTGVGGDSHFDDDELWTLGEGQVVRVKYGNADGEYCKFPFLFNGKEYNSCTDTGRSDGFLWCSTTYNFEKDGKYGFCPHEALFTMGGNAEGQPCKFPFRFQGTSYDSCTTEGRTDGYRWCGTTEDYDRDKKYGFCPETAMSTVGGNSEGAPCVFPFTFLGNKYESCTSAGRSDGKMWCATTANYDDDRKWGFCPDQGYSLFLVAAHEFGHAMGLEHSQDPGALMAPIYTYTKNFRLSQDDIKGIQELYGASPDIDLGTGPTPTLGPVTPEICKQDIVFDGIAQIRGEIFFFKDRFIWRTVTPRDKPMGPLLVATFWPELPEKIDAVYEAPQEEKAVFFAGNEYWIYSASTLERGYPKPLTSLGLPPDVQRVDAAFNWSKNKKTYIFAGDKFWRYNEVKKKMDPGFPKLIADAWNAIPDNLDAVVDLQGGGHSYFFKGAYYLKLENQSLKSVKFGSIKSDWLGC
Chain of Voltage-gated inwardly rectifying potassium channel KCNH2 (Q12809 whole entry): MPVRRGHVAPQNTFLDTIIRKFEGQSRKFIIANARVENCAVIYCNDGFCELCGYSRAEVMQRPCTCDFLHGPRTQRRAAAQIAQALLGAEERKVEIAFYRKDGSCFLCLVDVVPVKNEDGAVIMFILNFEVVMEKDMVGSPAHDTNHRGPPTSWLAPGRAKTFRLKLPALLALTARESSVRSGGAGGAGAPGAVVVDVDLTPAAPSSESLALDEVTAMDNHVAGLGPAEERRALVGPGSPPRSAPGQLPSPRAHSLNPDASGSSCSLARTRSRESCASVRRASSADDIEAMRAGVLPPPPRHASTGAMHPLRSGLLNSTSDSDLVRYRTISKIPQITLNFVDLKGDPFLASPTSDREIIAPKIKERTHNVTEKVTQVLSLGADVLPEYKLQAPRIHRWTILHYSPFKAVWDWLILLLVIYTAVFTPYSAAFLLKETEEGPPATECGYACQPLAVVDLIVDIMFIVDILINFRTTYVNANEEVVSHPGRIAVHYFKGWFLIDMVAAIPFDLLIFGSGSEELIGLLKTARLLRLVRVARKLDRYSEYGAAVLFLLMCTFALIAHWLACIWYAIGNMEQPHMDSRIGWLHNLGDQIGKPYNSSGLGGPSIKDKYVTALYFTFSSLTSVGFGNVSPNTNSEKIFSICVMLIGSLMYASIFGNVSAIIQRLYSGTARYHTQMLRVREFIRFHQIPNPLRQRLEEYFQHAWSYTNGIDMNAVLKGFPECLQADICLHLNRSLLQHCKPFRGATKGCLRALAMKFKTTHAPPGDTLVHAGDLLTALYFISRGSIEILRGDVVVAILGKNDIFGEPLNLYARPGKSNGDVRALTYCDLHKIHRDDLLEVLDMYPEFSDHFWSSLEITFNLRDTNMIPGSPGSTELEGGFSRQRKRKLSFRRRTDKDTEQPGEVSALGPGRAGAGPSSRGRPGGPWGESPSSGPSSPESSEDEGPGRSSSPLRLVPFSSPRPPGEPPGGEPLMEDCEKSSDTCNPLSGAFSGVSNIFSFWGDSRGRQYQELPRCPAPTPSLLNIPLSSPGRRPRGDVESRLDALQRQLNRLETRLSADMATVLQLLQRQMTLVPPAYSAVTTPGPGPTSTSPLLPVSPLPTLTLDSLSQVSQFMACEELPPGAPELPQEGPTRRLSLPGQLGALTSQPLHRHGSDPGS

| SMILES | EC50 [1] | IC50 [2] | IC50 [3] | IC50 [4] | IC50 [5] | EC50 [6] | CC50 [7] | IC50 [8] | IC50 [9] |
| --- | --- | --- | --- | --- | --- | --- | --- | --- | --- |
| O=C(CSc1nc2cc(Cl)ccc2s1)c1cc2ccccc2o1 | 0.35 µM (active) | 24.5 µM (active) | 18.8 µM (active) | 28.5 µM (active) | > 67.5 µM (inactive) | > 67.5 µM (inactive) | – | – | – |
| COc1cc2c(cc1NC(=O)CN1C(=O)NC3(CCc4ccccc43)C1=O)oc1ccccc12 (centres undefined) | – | – | – | – | – | – | 23.6 µM (active) | > 64.6 µM (inactive) | > 64.6 µM (inactive) |
